Data: patent US20060134217A1, “Leukotriene and integrin inhibitor combination and treatment method” (priority 2004, published 2006)
Marks after values point to notes of the source that are not given here.

Columns and labels:
[1] = system: stable asthmatic adults maintained on inhaled corticosteroids; conditions: cited from earlier work
[2] = system: mild and moderate asthmatics; conditions: cited from earlier work
key inflammatory cells = assay: Migration of inflammatory cells from blood into lungs; conditions: in vivo
[3] = system: mild/moderate asthmatics not treated with inhaled corticosteroids; assay: ARES study: R411 monotherapy, 12 week treatment period; type: in vivo, human; conditions: for % Asthma exacerbation / Asthma control Questionnaire (Total Score), change from baseline / Morning asthma symptoms, change from baseline / Nocturnal awakenings (scores), change from baseline / Rescue β 2-agonist use (puffs/d), change from baseline: 12 weeks, ITT population
Procedure: The ARES study illustrated in FIG. 4 was designed to evaluate the safety and efficacy of monotherapy R411 over a 12 week treatment period in 480 mild/moderate asthmatics not treated with inhaled corticosteroids. Patients were randomized to one of four cohorts: 50, 200, 600 mg QD R411, or placebo (n=120/group). The primary endpoint in the study was change in FEV1 from baseline, and secondary endpoints included PEFR, asthma exacerbations, β2-agonist use, asthma control questionnaire, asthma symptom scores, and nocturnal awakenings.
ARES study evaluated the safety and efficacy of monotherapy with R411 over a 12-week treatment period in 479 mild/moderate asthmatics not treated with inhaled corticosteroids. Patients were randomized to one of four cohorts: 50, 200, 600 mg once daily R411, or placebo.

α4/β7 to MadCAM-1 = target: T1, α4/β7 to MadCAM-1 (Homo sapiens, UniProt P13612+P26010); assay: Inhibition of α4/β7 binding to MadCAM-1
T1 sequence (P13612 34-1032): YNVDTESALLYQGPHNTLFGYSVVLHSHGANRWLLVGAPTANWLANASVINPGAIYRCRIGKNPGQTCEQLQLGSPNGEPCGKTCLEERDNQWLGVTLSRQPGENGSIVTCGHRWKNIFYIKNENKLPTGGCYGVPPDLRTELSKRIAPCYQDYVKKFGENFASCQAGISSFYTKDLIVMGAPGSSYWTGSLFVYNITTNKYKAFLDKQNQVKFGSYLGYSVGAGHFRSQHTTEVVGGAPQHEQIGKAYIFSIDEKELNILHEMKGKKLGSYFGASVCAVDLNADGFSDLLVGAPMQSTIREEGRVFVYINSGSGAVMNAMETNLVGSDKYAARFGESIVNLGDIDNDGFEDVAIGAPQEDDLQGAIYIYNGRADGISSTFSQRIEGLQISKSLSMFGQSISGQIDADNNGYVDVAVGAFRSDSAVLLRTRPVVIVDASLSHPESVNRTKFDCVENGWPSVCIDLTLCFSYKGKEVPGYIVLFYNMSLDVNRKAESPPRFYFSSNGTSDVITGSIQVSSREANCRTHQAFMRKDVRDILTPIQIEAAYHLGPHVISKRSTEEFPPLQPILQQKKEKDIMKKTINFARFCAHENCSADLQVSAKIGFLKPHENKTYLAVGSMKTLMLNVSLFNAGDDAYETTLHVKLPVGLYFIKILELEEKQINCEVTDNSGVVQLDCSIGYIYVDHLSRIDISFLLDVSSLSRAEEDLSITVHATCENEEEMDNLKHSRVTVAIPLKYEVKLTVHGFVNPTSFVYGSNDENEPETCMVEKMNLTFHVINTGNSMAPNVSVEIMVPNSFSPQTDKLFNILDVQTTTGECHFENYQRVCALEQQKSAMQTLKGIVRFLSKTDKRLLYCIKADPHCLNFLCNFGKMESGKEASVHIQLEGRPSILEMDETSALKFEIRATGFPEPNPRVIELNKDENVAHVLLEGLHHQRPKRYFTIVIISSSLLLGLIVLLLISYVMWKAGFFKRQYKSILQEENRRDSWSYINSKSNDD
T1 sequence (P26010 20-798): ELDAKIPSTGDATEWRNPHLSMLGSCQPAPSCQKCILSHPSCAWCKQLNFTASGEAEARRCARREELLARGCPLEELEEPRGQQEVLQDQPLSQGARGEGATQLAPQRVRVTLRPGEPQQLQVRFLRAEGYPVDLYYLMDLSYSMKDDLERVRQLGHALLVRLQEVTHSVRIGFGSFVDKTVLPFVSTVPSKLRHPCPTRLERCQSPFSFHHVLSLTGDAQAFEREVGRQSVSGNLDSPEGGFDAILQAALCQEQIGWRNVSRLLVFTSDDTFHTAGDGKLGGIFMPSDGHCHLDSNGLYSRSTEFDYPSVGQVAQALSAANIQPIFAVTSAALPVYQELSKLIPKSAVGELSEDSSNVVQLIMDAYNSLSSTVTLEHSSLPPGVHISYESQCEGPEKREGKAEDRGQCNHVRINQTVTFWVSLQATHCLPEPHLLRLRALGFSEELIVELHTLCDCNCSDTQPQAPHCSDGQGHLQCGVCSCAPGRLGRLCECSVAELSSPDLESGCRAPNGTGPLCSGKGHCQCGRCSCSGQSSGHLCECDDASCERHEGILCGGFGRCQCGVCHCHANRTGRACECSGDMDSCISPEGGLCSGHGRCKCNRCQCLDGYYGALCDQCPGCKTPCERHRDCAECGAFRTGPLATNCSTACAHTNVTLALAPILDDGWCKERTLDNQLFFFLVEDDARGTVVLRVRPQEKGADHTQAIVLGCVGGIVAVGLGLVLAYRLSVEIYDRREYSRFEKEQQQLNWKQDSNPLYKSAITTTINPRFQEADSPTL
From the text: (§1) R411 inhibits the binding of α4/β1 to vascular cell adhesion molecule (VCAM-1) and α4/β7 to MadCAM-1 by […]. R411 is disclosed in U.S. Pat. No. 6,229,011, which disclosure is incorporated by reference herein.

atopic primate = assay: Airway inflammation in the atopic primate, oral R411; type: in vivo; conditions: oral administration, FIG. 6
[4] = target: α4/β1 to vascular cell adhesion molecule (VCAM-1) (Homo sapiens, UniProt P05556+P13612); assay: Inhibition of α4/β1 binding to VCAM-1
From the text: as §1

[5] = system: α4/β1 and α4/β7 integrins; assay: Integrin selectivity
[6] = From the text: The pharmaceutical dosage forms may also be formulated to provide a chronobiological synergy of the two compounds.
[7] = system: persistent asthmatics on low to medium inhaled corticosteroids; assay: Phase II add-on of R411 to inhaled corticosteroids (MARS study); type: in vivo, human; conditions: added to moderate dose inhaled corticosteroids, subpopulation with less well controlled asthma
From the text: As set out above, a second component in the solid pharmaceutical dosage form comprises a therapeutically effective amount of R411 (N-(2-chloro-6-methylbenzoyl)-4-[(2,6-dichlorobenzoyl)amino]-L-phenylalanine-2-(diethylamino)ethyl ester), or a pharmaceutically acceptable salt thereof. […] The MARS study illustrated in FIG. 3 was designed to evaluate the safety and efficacy of R411 over a 12 week treatment period in 350 persistent asthmatics being treated with a stable dose of low to medium inhaled corticosteroids and inhaled short acting […]. Patients were randomized to one of five cohorts: 50, 200, 600 mg once daily (QD) or 300 mg twice daily (BID) R411, or placebo (n=70/group). After a 2-week placebo run-in period and subsequent 2-week add-on period (R411 or placebo), morning inhaled corticosteroids were removed. Two weeks later, evening inhaled corticosteroids were removed, and patients remained in the treatment period for an additional 8 weeks. The primary endpoint in the study was the percentage change in FEV1 from baseline, and secondary endpoint included PEFR, asthma exacerbations, β2-agonist use, asthma control questionnaire, asthma symptom scores, nocturnal awakenings, FEF25-75 and rate of asthma treatment failures.

α4 = target: T2, α4 (Homo sapiens, UniProt P13612); assay: In vitro binding to α4 integrin
T2 sequence (P13612 34-1032): T1 sequence (P13612 34-1032)

[8] = 50, 200, 600 mg once daily vs placebo

α4/β1 to vascular cell adhesion molecule (VCAM-1), sequence (P05556 21-798, one chain of several): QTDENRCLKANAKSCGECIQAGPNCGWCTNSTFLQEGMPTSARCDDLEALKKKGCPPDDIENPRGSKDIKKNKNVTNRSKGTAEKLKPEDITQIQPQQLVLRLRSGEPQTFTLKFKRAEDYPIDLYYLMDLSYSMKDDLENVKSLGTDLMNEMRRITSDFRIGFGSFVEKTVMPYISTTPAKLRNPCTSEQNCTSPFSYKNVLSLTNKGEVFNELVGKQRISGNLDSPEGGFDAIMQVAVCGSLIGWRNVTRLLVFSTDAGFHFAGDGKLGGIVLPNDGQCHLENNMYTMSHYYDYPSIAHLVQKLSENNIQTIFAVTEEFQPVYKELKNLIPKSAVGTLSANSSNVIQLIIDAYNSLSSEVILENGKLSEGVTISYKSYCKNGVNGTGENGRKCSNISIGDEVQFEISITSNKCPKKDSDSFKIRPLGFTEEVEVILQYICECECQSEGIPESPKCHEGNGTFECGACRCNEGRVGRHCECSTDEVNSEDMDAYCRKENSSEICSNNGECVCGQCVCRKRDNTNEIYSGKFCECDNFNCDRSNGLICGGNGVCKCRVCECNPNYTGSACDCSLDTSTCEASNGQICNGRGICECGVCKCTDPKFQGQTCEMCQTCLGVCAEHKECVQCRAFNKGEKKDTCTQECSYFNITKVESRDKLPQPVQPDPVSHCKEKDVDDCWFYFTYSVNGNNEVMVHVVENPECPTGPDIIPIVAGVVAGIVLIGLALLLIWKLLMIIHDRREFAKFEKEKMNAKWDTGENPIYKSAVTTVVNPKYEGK

CC(C)(O)c1ccccc1CC[C@@H](SCC1(CC(=O)[O-])CC1)c1cccc(/C=C/c2ccc3ccc(Cl)cc3n2)c1.[Na+] [montelukast, [R-(E)]-1-[[[1-[3-[2-(7-chloro-2-quinolinyl)ethenyl]phenyl]-3-[2-(1-hydroxy-1-methylethyl)phenyl]propyl]thio]methyl]cyclopropaneacetic acid, monosodium salt]
reduction in mean inhaled corticosteroid dose ([1]; 12-week active treatment period, placebo 30%): 47% | patients successfully tapered off inhaled corticosteroids ([1]; at conclusion of study, placebo 29%, p=NS): Approximately 40% | reduction of "as-needed" (beta)-agonist use from baseline ([2]; adult patients, placebo 4.6%): 26.1% | reduction of nocturnal awakenings from baseline ([2]; patients with nocturnal awakenings of at least 2 nights per week, combined analysis, placebo 15%): 34%

CCN(CC)CCOC(=O)[C@H](Cc1ccc(NC(=O)c2c(Cl)cccc2Cl)cc1)NC(=O)c1c(C)cccc1Cl [R411, N-(2-Chloro-6-methylbenzoyl)-4-[(2,6-dichlorobenzoyl)amino]-L-phenylalanine-2-(diethylamino)ethyl ester]
migration of key inflammatory cells from the blood into the lungs (key inflammatory cells): block the migration | % Asthma exacerbation ([3]; 200 mg once daily): 25.6% | Asthma control Questionnaire (Total Score), change from baseline ([3]; 200 mg once daily): −0.29 [2.08] | Morning asthma symptoms, change from baseline ([3]; 200 mg once daily): −0.34* [1.55] | Nocturnal awakenings (scores), change from baseline ([3]; 200 mg once daily): −0.15*/[0.61] scores | Rescue β 2-agonist use (puffs/d), change from baseline ([3]; 200 mg once daily): −0.36/[3.04] puffs/d | % Asthma exacerbation ([3]; 600 mg once daily): 26.10% | Asthma control Questionnaire (Total Score), change from baseline ([3]; 600 mg once daily): −0.23 [2.00] | Morning asthma symptoms, change from baseline ([3]; 600 mg once daily): −0.33* [1.57] | Nocturnal awakenings (scores), change from baseline ([3]; 600 mg once daily): −0.12*/[0.58] scores | Rescue β 2-agonist use (puffs/d), change from baseline ([3]; 600 mg once daily): −0.41*/[3.11] puffs/d | decrease in daytime asthma and nocturnal symptom score [3, 8]: Statistically significant improvements | reducing rescue albuterol use [3, 8]: Statistically significant improvements | Asthma Control Questionnaire Scores and Asthma Quality-of-Life ([3]; compared to placebo): Improvement | small airway flow rates as measured by FEF25-75 ([3]; monotherapy, FIG. 4): significant effect | reduction in asthma exacerbations ([3]; two highest doses of 200 and 600 mg): 26% | inhibition of binding of α4/β7 to MadCAM-1 (α4/β7 to MadCAM-1): inhibits | airway inflammation (atopic primate): attenuates airway inflammation | inhibition of binding of α4/β1 to VCAM-1 [4]: inhibits | integrin selectivity [5]: effective against both α4/β1 and α4/β7 integrins | acid/base character [6]: weak base | solubility along the gastrointestinal tract [6]: higher solubility in the upper part of the gastrointestinal tract | large airway flow rates as measured by FEV1 ([7]; FIG. 2): additive effect | small airway flow rates measured by FEF25-75 ([7]; FIG. 3): additive effect | binding affinity (α4; activated α4): high affinity | dissociation (α4; activated α4): slow dissociation | dissociation (α4; receptor not activated): more rapid | in vitro binding affinity (α4; receptor not activated): lower
